Assay results as given in ChEMBL document CHEMBL5338775, “Discovery of a Novel Class of PROTACs as Potent and Selective Estrogen Receptor α Degraders to Overcome Endocrine-Resistant Breast Cancer In Vitro and In Vivo” (J Med Chem, 2023).
pIC50, pKi: −log10 of the molar value. Calls of active or inactive are those of the source. The calls are words filed in the database; no cut-off is given here.

Key:
Estrogen receptor beta [1] = target: T1, Estrogen receptor beta (Homo sapiens, UniProt Q92731); assay: Binding affinity to ERbeta (unknown origin) assessed as relative binding affinity incubated for 2 hrs by fluorescence polarization assay relative to estradiol
T1 sequence (Q92731 whole entry): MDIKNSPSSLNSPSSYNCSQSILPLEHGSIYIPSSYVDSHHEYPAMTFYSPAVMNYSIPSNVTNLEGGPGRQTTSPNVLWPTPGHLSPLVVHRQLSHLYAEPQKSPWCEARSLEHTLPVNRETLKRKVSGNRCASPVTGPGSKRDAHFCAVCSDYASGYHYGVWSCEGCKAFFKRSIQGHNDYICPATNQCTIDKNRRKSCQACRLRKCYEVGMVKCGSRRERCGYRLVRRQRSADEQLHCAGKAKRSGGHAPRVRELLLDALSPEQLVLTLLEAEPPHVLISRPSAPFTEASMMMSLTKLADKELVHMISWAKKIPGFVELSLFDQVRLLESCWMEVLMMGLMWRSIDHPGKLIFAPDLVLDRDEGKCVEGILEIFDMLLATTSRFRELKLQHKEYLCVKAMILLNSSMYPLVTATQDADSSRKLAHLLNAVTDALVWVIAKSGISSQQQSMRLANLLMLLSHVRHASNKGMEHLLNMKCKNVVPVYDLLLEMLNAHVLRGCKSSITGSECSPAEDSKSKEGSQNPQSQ

MCF7 [2] = assay: cells; conditions: Homo sapiens, MCF7, 72 h
Mus musculus = assay: In vivo protac activity at VHL/ERalpha in BALB/c nude mouse xenografted with human tamoxifen-sensitive MCF7 cells assessed as reduction in ERalpha protein levels in tumor at 1 to 10 micromol/kg, ip administered once every 2 days by Western blot analysis; assay type: functional, organism-based; conditions: dose 1-10 µmol/kg
T47D [3] = assay: Inhibition of nascent GREB1 RNA synthesis in human T47D cells incubated for 6 hrs by 4-thiouridine incorporation assay; assay type: functional, cell-based
[4] = Toxicity in BALB/c nude mouse xenografted with human tamoxifen-sensitive MCF7 cells assessed as pathological changes in liver at 1 to 10 micromol/kg, ip administered once every 2 days by H and E staining based assay; assay type: organism-based; conditions: in vivo, 48 h, dose 1-10 µmol/kg
MCF7 [5] = assay: Antitumor activity against human tamoxifen-sensitive MCF7 cells xenografted in BALB/c nude mouse assessed as reduction in cell proliferation at 5 micromol/kg, ip administered once every 2 days by ki67 staining based analysis; assay type: functional, organism-based; conditions: dose 5.0 µmol/kg
MCF7 [6] = assay: Antitumor activity against human tamoxifen-sensitive MCF7 cells xenografted in BALB/c nude mouse assessed as increase in tumor necrosis area at 5 micromol/kg, ip administered once every 2 days by […] staining based analysis; assay type: functional, organism-based; conditions: dose 5.0 µmol/kg
[7] = Toxicity in BALB/c nude mouse xenografted with human tamoxifen-sensitive MCF7 cells assessed as pathological changes in kidney at 1 to 10 micromol/kg, ip administered once every 2 days by H and E staining based assay; assay type: organism-based; conditions: in vivo, 48 h, dose 1-10 µmol/kg
[8] = target: T2, von Hippel-Lindau disease tumor suppressor/Estrogen receptor (Homo sapiens) (UniProt P03372+P40337); assay: PROTAC activity at VHL/ERalpha in ER-positive human MCF7 cells assessed as induction of ERalpha degradation at 1 uM incubated for 12 hrs in presence of proteasome inhibitor, MG132 by Western blot analysis; assay type: cell-based
T2 sequence (P40337 whole entry, looked up, one chain of several): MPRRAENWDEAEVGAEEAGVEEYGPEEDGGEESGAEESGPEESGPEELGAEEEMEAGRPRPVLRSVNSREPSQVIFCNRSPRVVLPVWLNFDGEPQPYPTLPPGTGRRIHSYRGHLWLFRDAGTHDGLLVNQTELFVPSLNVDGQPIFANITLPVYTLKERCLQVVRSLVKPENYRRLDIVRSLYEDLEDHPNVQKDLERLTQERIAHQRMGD

[9] = target: T2, von Hippel-Lindau disease tumor suppressor/Estrogen receptor (Homo sapiens); assay: PROTAC activity at VHL/ERalpha in ER-positive human MCF7 cells assessed as induction of ERalpha degradation at 1 uM incubated for 12 hrs in presence of (2S,4R)-1-[(2S)-2-amino-3,3-dimethylbutanoyl]-4-hydroxy-N-[(1S)-1-[4-(4-methyl-1,3-thiazol-5-yl)phenyl]ethyl]pyrrolidine-2-carboxamide by Western blot analysis; assay type: cell-based
[10] = target: T2, von Hippel-Lindau disease tumor suppressor/Estrogen receptor (Homo sapiens); assay: PROTAC activity at VHL/ERalpha in ER-positive human MCF7 cells assessed as induction of ERalpha degradation at 1 uM incubated for 12 hrs in presence of N-ethyl-5,6-bis(4-hydroxyphenyl)-N-(4-methoxyphenyl)-7-oxabicyclo[2.2.1]hept-5-ene-2-sulfonamide by Western blot analysis; assay type: cell-based
T47D [11] = assay: Inhibition of gene transcription in human T47D cells assessed as reduction in H3K27ac levels in IGFBP4 promoter region by ChIP-seq analysis; assay type: functional, cell-based
cells = conditions: Homo sapiens, Tamoxifen-resistant LCC2 cell, 72 h
in vitro = conditions: human, MCF-10A cells
MCF7 [12] = assay: Antitumor activity against human tamoxifen-sensitive MCF7 cells xenografted in BALB/c nude mouse assessed as inhibition of tumor growth at 1 to 10 micromol/kg, ip administered once every 2 days and measured every 2 days; assay type: functional, organism-based; conditions: dose 1-10 µmol/kg
[13] = Selectivity ratio of relative binding affinity for ERalpha (unknown origin) to relative binding affinity to ERbeta (unknown origin)
T47D [14] = assay: Inhibition of nascent IGFBP4 RNA synthesis in human T47D cells incubated for 6 hrs by 4-thiouridine incorporation assay; assay type: functional, cell-based
Estrogen receptor = target: T3, Estrogen receptor (Homo sapiens, UniProt P03372)
T3 sequence (P03372 whole entry): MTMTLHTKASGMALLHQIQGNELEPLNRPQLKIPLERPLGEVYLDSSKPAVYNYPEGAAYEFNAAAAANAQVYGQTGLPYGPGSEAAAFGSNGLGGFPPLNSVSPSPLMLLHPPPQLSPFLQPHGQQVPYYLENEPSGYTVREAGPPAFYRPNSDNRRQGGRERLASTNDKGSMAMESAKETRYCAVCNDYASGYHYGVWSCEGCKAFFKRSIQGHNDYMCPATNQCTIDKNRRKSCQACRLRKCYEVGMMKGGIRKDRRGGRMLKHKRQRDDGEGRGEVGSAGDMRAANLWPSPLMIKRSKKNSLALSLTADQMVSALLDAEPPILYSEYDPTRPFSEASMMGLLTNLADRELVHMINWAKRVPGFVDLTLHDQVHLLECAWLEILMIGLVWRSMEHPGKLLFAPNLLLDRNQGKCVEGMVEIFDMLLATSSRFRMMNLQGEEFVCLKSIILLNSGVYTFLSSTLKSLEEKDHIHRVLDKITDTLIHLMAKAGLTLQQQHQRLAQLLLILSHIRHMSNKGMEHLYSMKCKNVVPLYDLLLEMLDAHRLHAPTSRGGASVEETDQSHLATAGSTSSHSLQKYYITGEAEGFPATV

[15] = target: T2, von Hippel-Lindau disease tumor suppressor/Estrogen receptor (Homo sapiens); assay: PROTAC activity at VHL/ERalpha in ER-positive human tamoxifen-resistant LCC2 cells assessed as induction of ERalpha degradation at 2 uM incubated for 12 hrs by Western blot analysis; assay type: cell-based; conditions: tamoxifen-resistant LCC2 cell
[16] = Toxicity in BALB/c nude mouse xenografted with human tamoxifen-sensitive MCF7 cells assessed as mortality at 1 to 10 micromol/kg, ip administered once every 2 days and measured every 2 days; assay type: organism-based; conditions: in vivo, 48 h, dose 1-10 µmol/kg
[17] = target: T4, Estrogen receptor (Homo sapiens) (UniProt P03372); assay: Inhibition of ERalpha binding to DNA in human T47D cells assessed as reduction in protein occupancy incubated for 6 hrs by ChIP-seq analysis; assay type: cell-based
T4 sequence (whole entry): T3 sequence (P03372 whole entry)

MCF7 [18] = assay: Induction of cell cycle arrest in human MCF7 cells at 1 to 10 uM incubated for 24 hrs; assay type: functional, cell-based; conditions: dose 1-10 µM
[19] = Toxicity in BALB/c nude mouse xenografted with human tamoxifen-sensitive MCF7 cells assessed as pathological changes in heart at 1 to 10 micromol/kg, ip administered once every 2 days by H and E staining based assay; assay type: organism-based; conditions: in vivo, 48 h, dose 1-10 µmol/kg
MDA-MB-231 = assay: cells; conditions: Homo sapiens, MDA-MB-231, 72 h
[20] = test system: tamoxifen-resistant LCC2 cell; assay: Antitumor activity against human ER-positive tamoxifen-resistant LCC2 cells xenografted in BALB/c nude mouse assessed as reduction in tumor growth at 5 micromol/kg, ip administered once every 2 days and measured every 2 days; assay type: functional, organism-based; conditions: dose 5.0 µmol/kg
T47D [21] = assay: Inhibition of gene transcription in human T47D cells assessed as reduction in H3K27ac levels in GREB1 promoter region by ChIP-seq analysis; assay type: functional, cell-based
[22] = target: T2, von Hippel-Lindau disease tumor suppressor/Estrogen receptor (Homo sapiens); assay: PROTAC activity at VHL/wild type ERalpha in ER-positive human MCF7 cells assessed as induction of ERalpha degradation at 1 uM incubated for 12 hrs by Western blot analysis; assay type: cell-based
[23] = target: T2, von Hippel-Lindau disease tumor suppressor/Estrogen receptor (Homo sapiens); assay: PROTAC activity at VHL/ERalpha in ER-positive human MCF7 cells assessed as induction of ERalpha degradation at 0.01 to 10 uM incubated for 12 hrs by Western blot analysis; assay type: cell-based; conditions: dose 0.01-10 µM
MCF7 [24] = assay: Induction of apoptosis in human MCF7 cells at 1 to 10 uM incubated for 24 hrs by Annexin V-FITC/PI staining based analysis; assay type: functional, cell-based; conditions: dose 1-10 µM
[25] = target: von Hippel-Lindau disease tumor suppressor/Estrogen receptor beta (Homo sapiens) (UniProt Q92731+P40337); assay: PROTAC activity at VHL/ERbeta in human NCI-H1975 cells assessed as induction of ERbeta degradation at 1 to 10 uM incubated for 12 hrs by Western blot analysis; assay type: cell-based; conditions: dose 1-10 µM
Chain of von Hippel-Lindau disease tumor suppressor/Estrogen receptor beta (Homo sapiens) (P40337 whole entry, looked up): as the sequence (P40337 whole entry, looked up, one chain of several) above
Chain of von Hippel-Lindau disease tumor suppressor/Estrogen receptor beta (Homo sapiens) (Q92731 whole entry, looked up): as the sequence (Q92731 whole entry) above

[26] = Selectivity index, ratio of Ki for ERalpha (unknown origin) to Ki for ERbeta (unknown origin)
Estrogen receptor beta [27] = target: T1, Estrogen receptor beta
[28] = target: T2, von Hippel-Lindau disease tumor suppressor/Estrogen receptor (Homo sapiens); assay: PROTAC activity at VHL/wild type ERalpha in ER-positive human T47D cells assessed as induction of ERalpha degradation at 2 uM incubated for 12 hrs by Western blot analysis; assay type: cell-based
[29] = Toxicity in BALB/c nude mouse xenografted with human tamoxifen-sensitive MCF7 cells assessed as reduction in body weight at 1 to 10 micromol/kg, ip administered once every 2 days and measured every 2 days; assay type: organism-based; conditions: in vivo, 48 h, dose 1-10 µmol/kg
T47D [30] = assay: cells; conditions: Homo sapiens, 72 h
T47D [31] = assay: Inhibition of gene transcription in human T47D cells assessed as reduction in Pol II occupancy at GREB1 promoter region by ChIP-seq analysis; assay type: functional, cell-based
T47D [32] = assay: cells; conditions: Homo sapiens, 72 h; remark: listed apart in the source
T47D [33] = assay: Inhibition of gene transcription in human T47D cells assessed as reduction in Pol II occupancy at IGFBP4 promoter region by ChIP-seq analysis; assay type: functional, cell-based
T47D [34] = assay: cells; conditions: Homo sapiens, 72 h; remark: listed apart in the source

In the case of `CCN(c1ccc(OCCCCCC(=O)N[C@H](C(=O)N2C[C@H](O)C[C@H]2C(=O)N[C@@H](C)c2ccc(-c3scnc3C)cc2)C(C)(C)C)cc1)S(=O)(=O)C1CC2OC1C(c1ccc(O)cc1)=C2c1ccc(O)cc1` (some centres undefined), the RBA (Estrogen receptor beta [1]) was 0.06%, the pIC50 (MCF7 [2]) was 6.51 and the Activity (Mus musculus) was “Active”. The inhibition (T47D [3]) was “Active”, the Activity [4] was “Non-Toxic” and the Activity (MCF7 [5]) was “Active”. The Activity (MCF7 [6]) was “Active”, the Activity [7] was “Non-Toxic” and the Activity [8] was “inactive”. For the same compound, the Activity [9] was “inactive”, the Activity [10] was “inactive” and the inhibition (T47D [11]) was “Active”. For the same compound, the pIC50 (cells) was 4.91, the IC50 at 72 h (in vitro) was greater than 100 µM and the inhibition (MCF7 [12]) was “Active”. For the same compound, the Selectivity ratio [13] was 1.33, the inhibition (T47D [14]) was “Active” and the pKi (Estrogen receptor) was 5.60. For the same compound, the Activity [15] was “Active”, the Activity [16] was “Non-Toxic” and the inhibition [17] was “Active”. The Activity (MCF7 [18]) was “Active”, the Activity [19] was “Non-Toxic” and the pIC50 (MDA-MB-231) was less than 4.00. The Activity [20] was “Active”, the inhibition (T47D [21]) was “Active” and the Activity [22] was “Active”. For the same compound, the Activity [23] was “Active”, the Activity (MCF7 [24]) was “Active” and the Activity [25] was “inactive”. The Ratio Ki [26] was 5.16, the pKi (Estrogen receptor beta [27]) was 4.88 and the Activity [28] was “Active”. The Activity [29] was “Non-Toxic”, the pIC50 (T47D [30]) was 5.09 and the inhibition (T47D [31]) was “Active”. For the same compound, the pIC50 (T47D [32]) was 5.02, the inhibition (T47D [33]) was “Active” and the pIC50 (T47D [34]) was 5.12.
